The values below come from US20230097157A1, “Bicyclic Pyridin-2-one and pyrimidin-4-one Derivatives Useful As a Factor XIa Inhibitors” (Janssen Pharmaceutica NV, priority 2021, published 2023).

Like-named read-outs stand apart in the source and are kept apart here.

Assay [1] deals with Factor XIa (Homo sapiens, UniProt P03951). As to the kind of experiment: Factor XIa inhibition assay (FLINT) utilizing a fluorophore-quencher pair peptide substrate 5Fam-[…]-K5Tamra. Format: biochemical. The settings on record: kinetic (KIN) reads, read-out: FXIa KIN Inh IC50. The text has this: Biological Example 1: Factor XIa Inhibition Assay Utilizing a Fluorophore-Quencher Pair Peptide Substrate A fluorescence intensity (FLINT) based assay was used to monitor inhibition of Factor XIa. The peptide substrate, 5Fam-[…]-K5Tamra (purchased from New England Peptide) was chosen based on the FXI sequence. Conversion of zymogen FXI to its activated form, FXIa, occurs by proteolytic cleavage by […] at two sites, Arg146 and Arg180. The custom peptide used in this assay was based on the Arg146 cleavage site of FXI. The peptide substrate was designed with a fluorophore-quencher pair, where the fluorescence is quenched until FXIa cleaves the 8-mer peptide after the Arg residue.
The Factor XIa FLINT assay was used with the following 5Fam-[…]-K5Tamra assay buffer: 50 mM Tris, pH 7.5, 100 mM NaCl, 5 mM CaCl2, 0.1 mg/mL BSA, 0.03% CHAPS. Assay buffer was prepared by mixing all ingredients fresh. 5Fam-[…]-K5Tamra peptide substrate was first prepared at 10 mM in 100% DMSO, then diluted to 3 mM in 100% DMSO. Assay buffer was then added directly to the 3 mM stock of substrate to prepare the 30 μM 2× working concentration (15 μM final concentration). The 2× Factor XIa stock solution was prepared by diluting 6.562 μM stock in 1× assay buffer for a […].
Test compound(s) were run in an 11-point, 3-fold serial dilution with a final top compound concentration of 100 nM. Final DMSO in assay was 2%. FXIa was preincubated with compound for 30-minutes and then substrate was added to initiate the reaction. The assay was run with kinetic (KIN) reads at 5 min intervals over 30 minutes. […] More specifically, the assay was run as follows: • 100 nL of 0.01 mM test compound was dispensed into black 384-well non-binding Greiner BioOne 784900 plate for 0.1 μM final concentration; • 5 μL of 1× assay buffer was dispensed to column 24 (low control) and 5 μL 2× Factor XIa solution was dispensed to columns 1-23 (column 23 high control); • the plate was centrifuged with a “cover” plate at 500 rpm for 1 min • the plate was pre-incubated for 30 minutes at room temperature with plate covered; • 5 μL of 2×5Fam-[…]-K5Tamra peptide substrate was dispensed into the entire plate, columns 1-24; • the plate was centrifuged with a “cover” plate at 500 rpm for 1 min; • the plate was read monitoring fluorescence intensity on the BMG PHERAStar at room temperature, using fluorescence module 485 nm/520 nm.
Percent inhibition (IC50) curves were generated per compound tested, and data was analyzed using a 4-parameter logistic fit using GeneData Screener. The relative fluorescence unit (RFU) values were normalized to percent inhibition using the following equation:
% inhibition=((HC−LC)−(compound−LC)/(HC−LC))*100 where LC−low control=mean signal of no Factor XIa or 100% inhibition of Factor XIa; HC−high control=mean signal of Factor XIa+5Fam-[…]-K5Tamra peptide substrate with DMSO only.
An 11-point dose response curve for the test compound(s) was generated using GENDATA to determine IC50 value based on the following equation:
Y=Bottom+(Top−Bottom)/(1+10^((log IC50−X)*HillSlope)) where Y is the % inhibition in the presence of X inhibitor concentration, Top=high control=mean signal of Factor XIa+5Fam-[…]-K5Tamra peptide substrate with DMSO only; Bottom=low control−mean signal of no Factor XIa or 100% inhibition of Factor XIa; HillSlope−Hill coefficient; and IC50=concentration of compound with 50% inhibition in relation to top/high control.

Assay [2] deals with human plasma kallikrein (Homo sapiens, UniProt P03952). As to the kind of experiment: Kallikrein inhibition assay (FLINT) utilizing a quenched AMC peptide substrate Z-Gly-Pro-Arg-AMC. Format: biochemical. The settings on record: kinetic (KIN) reads, read-out: Kallikrein KIN Inh IC50. In outline:
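Human plasma kallikrein (2 nM final) pre-incubated 30 min with compound (11-point 3-fold series, top 1 μM, 2% DMSO), then 50 μM Z-Gly-Pro-Arg-AMC added. Buffer 50 mM Tris pH 7.5, 100 mM NaCl, 5 mM CaCl2, BSA, CHAPS. AMC fluorescence (340/440 nm) read kinetically over 30 min at room temperature, IC50 by 4-parameter logistic fit.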

The IC50 is the concentration that gives 50% inhibition.

Sequence of Factor XIa (P03951 388-625 limits assumed): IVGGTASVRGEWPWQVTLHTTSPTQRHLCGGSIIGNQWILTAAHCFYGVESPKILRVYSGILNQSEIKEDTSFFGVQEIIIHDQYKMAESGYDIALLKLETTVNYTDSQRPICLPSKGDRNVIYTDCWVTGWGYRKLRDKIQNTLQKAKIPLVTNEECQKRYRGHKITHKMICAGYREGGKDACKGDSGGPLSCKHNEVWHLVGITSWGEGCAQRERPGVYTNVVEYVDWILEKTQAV
Sequence of Factor XIa (P03951 19-387 partner limits assumed): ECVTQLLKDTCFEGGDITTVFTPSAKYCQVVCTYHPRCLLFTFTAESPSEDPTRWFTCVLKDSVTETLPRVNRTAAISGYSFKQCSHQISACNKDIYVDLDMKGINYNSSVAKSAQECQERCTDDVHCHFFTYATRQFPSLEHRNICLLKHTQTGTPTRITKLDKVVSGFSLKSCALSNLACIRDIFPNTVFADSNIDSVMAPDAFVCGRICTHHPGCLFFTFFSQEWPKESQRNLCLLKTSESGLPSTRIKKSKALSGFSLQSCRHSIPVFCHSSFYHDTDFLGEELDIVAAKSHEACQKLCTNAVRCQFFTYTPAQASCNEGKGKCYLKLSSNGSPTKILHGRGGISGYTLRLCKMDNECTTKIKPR
Sequence of human plasma kallikrein (P03952 391-638 limits assumed): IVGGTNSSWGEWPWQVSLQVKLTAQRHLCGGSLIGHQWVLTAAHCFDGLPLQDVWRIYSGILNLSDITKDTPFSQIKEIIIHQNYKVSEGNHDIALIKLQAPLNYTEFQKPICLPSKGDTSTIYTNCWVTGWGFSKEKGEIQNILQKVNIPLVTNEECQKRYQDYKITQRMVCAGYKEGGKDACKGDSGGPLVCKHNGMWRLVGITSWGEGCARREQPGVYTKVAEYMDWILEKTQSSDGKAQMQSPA
Sequence of human plasma kallikrein (P03952 20-390 partner limits assumed): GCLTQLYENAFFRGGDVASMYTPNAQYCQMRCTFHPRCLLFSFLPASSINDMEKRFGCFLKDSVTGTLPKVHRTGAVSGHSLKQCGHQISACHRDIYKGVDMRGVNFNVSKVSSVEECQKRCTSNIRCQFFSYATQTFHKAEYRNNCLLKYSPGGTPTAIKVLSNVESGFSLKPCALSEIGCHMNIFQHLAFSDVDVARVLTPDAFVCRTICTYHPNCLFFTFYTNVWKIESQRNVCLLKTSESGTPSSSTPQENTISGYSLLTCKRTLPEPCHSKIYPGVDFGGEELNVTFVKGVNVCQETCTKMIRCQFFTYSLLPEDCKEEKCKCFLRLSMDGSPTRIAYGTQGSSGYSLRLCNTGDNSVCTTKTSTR

Take `Nc1ccc(-c2[nH]c(C3CC4(CC4)c4nc(-c5c(-n6cnnn6)ccc(Cl)c5F)cc(=O)n43)nc2F)c(F)n1` (stereo in doubt) [Example 76, (S)-6′-(5-(6-amino-2-fluoropyridin-3-yl)-4-fluoro-1H-imidazol-2-yl)-2′-(3-chloro-2-fluoro-6-(1H-tetrazol-1-yl)phenyl)-6′,7′-dihydro-4′H-spiro[cyclopropane-1,8′-pyrrolo[1,2-a]pyrimidin]-4′-one]: the values for the half-maximal inhibitory concentration (IC50) in assay [1] (values in nM) and in assay [2] (values in nM) were 0.8 nM and 12.1 nM, respectively.

As for `C[C@H]1C[C@@H](c2ncc(-c3sc(N)nc3C(F)(F)F)[nH]2)n2c1cc(-c1c(-n3cnnn3)ccc(Cl)c1F)cc2=O` [Example 27, (1S,3S)-3-(5-(2-Amino-4-(trifluoromethyl)thiazol-5-yl)-1H-imidazol-2-yl)-7-(3-chloro-2-fluoro-6-(1H-tetrazol-1-yl)phenyl)-1-methyl-2,3-dihydroindolizin-5(1H)-one], the IC50 in assay [1] (values in nM) was determined as 483 nM; in assay [2] (unit μM), 2400 nM.

With `C[C@@H]1C[C@@H](c2ncc(-c3ccc(N)nc3Cl)[nH]2)n2c1cc(-c1c(-n3cnnn3)ccc(Cl)c1F)cc2=O` [Example 58, (1R,3S)-3-(5-(6-Amino-2-chloropyridin-3-yl)-1H-imidazol-2-yl)-7-(3-chloro-2-fluoro-6-(1H-tetrazol-1-yl)phenyl)-1-methyl-2,3-dihydroindolizin-5(1H)-one], the IC50 in assay [1] (values in nM) amounted to 0.4 nM; in assay [2] (values in nM) it was 3.1 nM.

`C[C@@H]1C[C@@H](c2ncc(-c3ccnc(CO)c3F)[nH]2)n2c1cc(-c1c(-n3cnnn3)ccc(Cl)c1F)cc2=O` (relative stereo) [Example 1, (1R*,3S*)-7-(3-Chloro-2-fluoro-6-(1H-tetrazol-1-yl)phenyl)-3-(5-(3-fluoro-2-(hydroxymethyl)pyridin-4-yl)-1H-imidazol-2-yl)-1-methyl-2,3-dihydroindolizin-5(1H)-one]: the IC50 in assay [1] (values in nM) amounted to 11 nM; in assay [2] (values in nM), 47 nM.

On to `C[C@H]1C[C@H](c2ncc(-c3ccnc(C#N)c3)[nH]2)n2c1cc(-c1c(-n3cnnn3)ccc(Cl)c1F)cc2=O` (relative stereo) [Example 30, 4-(2-((1S,3R)-7-(3-Chloro-2-fluoro-6-(1H-tetrazol-1-yl)phenyl)-1-methyl-5-oxo-1,2,3,5-tetrahydroindolizin-3-yl)-1H-imidazol-5-yl)picolinonitrile], for which the IC50 in assay [1] (values in nM) was 873 nM; in assay [2] (unit μM), 1200 nM.

With `Nc1ccc(-c2cnc([C@@H]3CC4(CC4)c4cc(-c5c(-n6cnnn6)ccc(Cl)c5F)cc(=O)n43)[nH]2)c(F)n1` [Example 25, (S)-3′-(5-(6-Amino-2-fluoropyridin-3-yl)-1H-imidazol-2-yl)-7′-(3-chloro-2-fluoro-6-(1H-tetrazol-1-yl)phenyl)-2′,3′-dihydro-5′H-spiro[cyclopropane-1,1′-indolizin]-5′-one], the half-inhibitory concentration (IC50) in assay [1] (values in nM) amounted to 0.6 nM; in assay [2] (values in nM) it was 14.1 nM.

As for `C[C@H]1C[C@@H](c2ncc(-c3cnc(F)c(N)c3)[nH]2)n2c1cc(-c1c(-n3cnnn3)ccc(Cl)c1F)cc2=O` [Example 21, (1S,3S)-3-(5-(5-Amino-6-fluoropyridin-3-yl)-1H-imidazol-2-yl)-7-(3-chloro-2-fluoro-6-(1H-tetrazol-1-yl)phenyl)-1-methyl-2,3-dihydroindolizin-5(1H)-one], the IC50 turned out to be 64.4 nM in assay [1] (values in nM) and 340 nM in assay [2] (values in nM).

Consider `C[C@@H]1C[C@@H](c2ncc(-c3ccc(N)nc3F)[nH]2)n2c1nc(-c1c(-n3cnnn3)ccc(Cl)c1F)cc2=O` (relative stereo) [Example 137, (6S*,8R*)-6-(5-(6-Amino-2-fluoropyridin-3-yl)-1H-imidazol-2-yl)-2-(3-chloro-2-fluoro-6-(1H-tetrazol-1-yl)phenyl)-8-methyl-7,8-dihydropyrrolo[1,2-a]pyrimidin-4(6H)-one], for which the half-inhibitory concentration (IC50) worked out at 104 nM in assay [1] (values in nM) and 7200 nM in assay [2] (unit μM).

Regarding `C[C@@H]1C[C@@H](c2ncc(-c3ccnc(F)c3)[nH]2)n2c1cc(-c1c(-n3cnnn3)ccc(Cl)c1F)cc2=O` (relative stereo) [Example 45, (1*R,3*S)-7-(3-Chloro-2-fluoro-6-(1H-tetrazol-1-yl)phenyl)-3-(5-(2-fluoropyridin-4-yl)-1H-imidazol-2-yl)-1-methyl-2,3-dihydroindolizin-5(1H)-one], the IC50 in assay [1] (unit μM) and in assay [2] (unit μM) was over 10000 nM throughout.

On to `C[C@H]1C[C@@H](c2ncc(-c3ccc4c(c3)CC(=O)N4)[nH]2)n2c1nc(-c1c(-n3cnnn3)ccc(Cl)c1F)cc2=O` (stereo in doubt) [Example 113, (6*S,8*S)-2-(3-Chloro-2-fluoro-6-(1H-tetrazol-1-yl)phenyl)-8-methyl-6-(5-(2-oxoindolin-5-yl)-1H-imidazol-2-yl)-7,8-dihydropyrrolo[1,2-a]pyrimidin-4(6H)-one], for which the results for the IC50 in assay [1] (values in nM) and in assay [2] (values in nM) were 0.7 nM and 16.8 nM, respectively.

Regarding `C[C@H]1C[C@@H](c2ncc(-c3ncc(N)nc3C(F)(F)F)[nH]2)n2c1nc(-c1c(-n3cnnn3)ccc(Cl)c1F)cc2=O` (relative stereo) [Example 83, (6*S,8*S)-6-(5-(5-Amino-3-(trifluoromethyl)pyrazin-2-yl)-1H-imidazol-2-yl)-2-(3-chloro-2-fluoro-6-(1H-tetrazol-1-yl)phenyl)-8-methyl-7,8-dihydropyrrolo[1,2-a]pyrimidin-4(6H)-one], the 50% inhibitory concentration (IC50) in assay [1] (values in nM) worked out at 56.2 nM; in assay [2] (values in nM), 377 nM.

Regarding `C[C@@H]1C[C@H](c2ncc(-c3cnns3)[nH]2)n2c1nc(-c1c(-n3cnnn3)ccc(Cl)c1F)cc2=O` (relative stereo) [Example 105, (6*R,8*R)-6-(5-(1,2,3-Thiadiazol-5-yl)-1H-imidazol-2-yl)-2-(3-chloro-2-fluoro-6-(1H-tetrazol-1-yl)phenyl)-8-methyl-7,8-dihydropyrrolo[1,2-a]pyrimidin-4(6H)-one], the 50% inhibitory concentration (IC50) in assay [1] (unit μM) and in assay [2] (unit μM) was over 10000 nM throughout.

With `C[C@@H]1C[C@H](c2ncc(-c3ccc(N)nc3F)[nH]2)n2c1nc(-c1c(-n3cnnn3)ccc(Cl)c1F)cc2=O` (stereo in doubt) [Example 138, (6R*,8R*)-6-(5-(6-Amino-2-fluoropyridin-3-yl)-1H-imidazol-2-yl)-2-(3-chloro-2-fluoro-6-(1H-tetrazol-1-yl)phenyl)-8-methyl-7,8-dihydropyrrolo[1,2-a]pyrimidin-4(6H)-one], the figures for the half-inhibitory concentration (IC50) in assay [1] (values in nM) and in assay [2] (unit μM) were 258 nM and 4300 nM, respectively.

For the compound `COC(=O)Nc1ccc(-c2cnc([C@H]3C[C@H](C)c4nc(-c5c(-n6cnnn6)ccc(Cl)c5F)cc(=O)n43)[nH]2)cn1` (stereo in doubt) [Example 115, methyl (5-(2-((6R*,8S*)-2-(3-Chloro-2-fluoro-6-(1H-tetrazol-1-yl)phenyl)-8-methyl-4-oxo-4,6,7,8-tetrahydropyrrolo[1,2-a]pyrimidin-6-yl)-1H-imidazol-5-yl)pyridin-2-yl)carbamate], the half-maximal inhibitory concentration (IC50) in assay [1] (values in nM) was determined as 247 nM; in assay [2] (unit μM), 6000 nM.

For the compound `Cc1nc(N)ccc1-c1cnc([C@@H]2C[C@@H](C)c3cc(-c4c(-n5cnnn5)ccc(Cl)c4F)cc(=O)n32)[nH]1` [Example 50, (1R,3S)-3-(5-(6-Amino-2-methylpyridin-3-yl)-1H-imidazol-2-yl)-7-(3-chloro-2-fluoro-6-(1H-tetrazol-1-yl)phenyl)-1-methyl-2,3-dihydroindolizin-5(1H)-one], the results for the IC50 in assay [1] (values in nM) and in assay [2] (values in nM) were 1.4 nM and 16 nM, respectively.
